Assay results reported in patent US5648367A, “Aminoalkyloximes” (Hoechst Marion Roussel, Inc., priority 1995, dated 1997).
Counter-ions that a name gives are not always drawn.

System: Serotonin Reuptake
Assay: in vitro inhibition of serotonin uptake ([3H]-5HT uptake into whole rat brain synaptosomes)
Type: biochemical, rat (Male CR Wistar rats)
Conditions: rat whole brain (minus cerebellum) synaptosomes; 50 nM [3H]-5HT; 5 minutes at 37° C.; pH 7.4; log probit analysis
Protocol: See, for example, W. K. Goodman, et al., Archives of General Psychiatry, 47, 577 (1990). […] In this assay, a modification of the tests described by A. S. Horn and R. C. A. M. Trace, British Journal of Pharmacology, 51, 399 (1974), A. Nagy and A. V. Delgado-Escueta, Journal of Neurochemistry, 43, 1114 (1984) and P. R. Dunkley, et al., Brain Research, 372, 115 (1986), the following reagents are prepared and employed:
Male CR Wistar rats (100-125 g)
3. Sucrose solution: 0.32M sucrose containing 5 mM HEPES and 0.1 mM EDTA; pH to 7.3 using Tris base.
4. A 0.1 mM stock solution of serotonin creatinine SO4 is made up in 0.01N HCl. This is used to dilute the specific activity of radiolabeled 5HT.
5. 5-[1,2-^3 H(N)]-Hydroxytryptamine creatinine sulfate (serotonin), specific activity 20-30 Ci/mmol, is used. The final desired concentration of [^3 H]-5HT in the assay is 50 nM. The dilution factor is 0.8. The KHBB is made up to contain 62.5 nM of [^3 H]-5HT.
6. For most assays, a 0.5 mM stock solution of the test compound is made up initially in either 10 μl of glacial acetic acid, 100 μl DMSO or 10 μl of the recrystallization solvent, to which is added approximately 10 ml of distilled water. Compounds are initially screened in duplicate at 3 concentrations (10^-8, 10^-7 and 10^-6 M) made up in water. […] To ensure consistency, the standard clomipramine is run with each assay.
Male Wistar rats are decapitated and the brain rapidly removed. Whole brain (minus cerebellum) is weighed and homogenized in 15 volumes of ice cold sucrose solution using a Potter-Elvejhem homogenizer. The following procedures are performed on ice. Homogenization should be done with 4-5 up and down strokes at medium speeds (setting 4.5 to 5) to minimize synaptosome lysis. The homogenate is centrifuged at 1000 g (3000 rpm, Sorvall SS-34 rotor) for 10 minutes at 0°-4° C. The supernatant is removed and approximately 10 ml per tube is carefully layered onto a discontinuous Percoll (Sigma cat# P-1644) gradient: 21% Percoll in sucrose solution at the bottom (15 ml per tube) and 10% Percoll in the middle (10 ml; colored with a few drops of phenol red for visibility).
The Percoil gradient tubes are carefully placed into a Beckman SW-28 swinging bucket rotor and spun in a Beckman XL90 ultracentrifuge using the following program: speed, 11,000 rpm (15,000 g) for 30 minutes at 4° C.; slow acceleration and deceleration (acceleration setting 9; deceleration setting 3). Tubes are carefully removed, and the top layer and the top part of the middle (red) layers are discarded using a pasteur pipette. The synaptosomes are located in the white fluffy band at the interface between the 10% and 21% Percoll layers. This is carefully removed, placed in a centrifuge tube, diluted with KHBB and spun at 21,000 g (13,000 rpm, Sorvall SS-34 rotor). The pellet (synaptosomes) is resuspended in KHBB (10 vol per gram original brain wet weight; 1 brain minus cerebellum weighs approximately 1.2 g; 2.5 brains are needed per typical assay).
20 μl Vehicle or appropriate drug
200 μl of the tissue suspension are added to each of 24 tubes (at a time) containing the 20 μl of vehicle or drug on ice. Three minutes later, 800 μl of KHBB containing [^3 H]-5HT are added, and tubes are vortexed. The rack containing the 24 tubes is moved from the ice bath to a water bath set at 37° C. The tubes are incubated for 5 minutes under 95% oxygen/5% carbon dioxide. Uptake is terminated by filtration through GF/B filter strips using a Brandel cell harvester (filter strips are presoaked in ice cold filtration buffer). Tubes are washed once with 5 ml of ice cold filtration buffer. Filter disks are placed in scintillation vials to which are added 10 ml of scintillation fluid (EcoScint). Filters are allowed to sit overnight before being counted.
For each assay, 3 tubes are incubated with 20 μl of vehicle at both 37° C. and 0° C.

## NCCON=C(CCCn1ccnc1)c1ccc(Cl)cc1 [1-(4-Chlorophenyl)-4-(1-(1H)-imidazolyl)-1-butanone O-(2-aminoethyl)oxime dihydrochloride]
  IC50: 160 nM

## NCCON=C(CCCn1ccnc1)c1ccc(F)cc1 [1-(4-Fluorophenyl)-4-(1-(1H)-imidazolyl)-1-butanone O-(2-aminoethyl)oxime dihydrochloride]
  IC50: 257 nM

## NCCON=C(CCn1ccnc1)c1ccc(C(F)(F)F)cc1 [3-(1-(1H)-Imidazolyl)-1-(4-trifluoromethylphenyl)-1-propanone O-(2-aminoethyl)oxime dihydrochloride]
  IC50: 164 nM

## NCCON=C(CCn1ccnc1)c1ccc(Cl)cc1 [4'-Chloro-3-(1-(1H)-imidazolyl)propiophenone O-(2-aminoethyl)oxime difumarate]
  IC50: 128 nM

## COc1ccc(C(CCn2ccnc2)=NOCCN)cc1 [4'-Methoxy-3-(1-(1H)-imidazolyl)propiophenone O-(2-aminoethyl)oxime difumarate hydrate]
  IC50: 1280 nM

## NCCON=C(CCCn1ccnc1)c1ccc(C(F)(F)F)cc1 [4-(1-(1H)-Imidazolyl)-1-(4-trifluoromethylphenyl)-1-butanone O-(2-aminoethyl)oxime dihydrochloride]
  IC50: 80 nM

## NCCON=C(CCCn1ccnc1)c1ccccc1 [4-(1-(1H)-Imidazolyl)-1-phenyl-1-butanone O-(2-aminoethyl)oxime dihydrochloride]
  IC50: 1810 nM

## Cc1nccn1CCCC(=NOCCN)c1ccccc1 [4-(2-Methyl-1-(1H)-imidazolyl)-1-phenyl-1-butanone O-(2-aminoethyl)oxime dihydrochloride]
  IC50: 656 nM
